From article PMC10720383, “Acetylcholinesterase Inhibition in Rats and Humans Following Acute Fenitrothion Exposure Predicted by Physiologically Based Kinetic Modeling-Facilitated Quantitative In Vitro to In Vivo Extrapolation” (Environmental Science & Technology, 2023)
Several values for one entry are separate records, joined by “and”; a condition that tells them apart may be missing. Identical values can stand only once. Like-named read-outs stand apart in the source and are kept apart here.

Experiments:
rat erythrocyte AChE = target: T1, rat erythrocyte AChE (Rattus norvegicus, UniProt P37136); assay: In vitro AChE inhibition assay with rat blood; type: biochemical
T1 construct: tissue Innovative Research Inc. (Novi, MI, USA); host or cells: rat whole blood (Sprague-Dawley), K2EDTA
Experimental: (§1) Inhibition of rat and human erythrocyte AChE by FNT and FNO was determined using rat and human blood. Additionally, in vitro AChE inhibition assay was also performed by exposing recombinant human AChE and self-prepared rat erythrocyte AChE to FNT and FNO in a low-protein medium to investigate the potential effect induced by blood matrix. Details are provided in the Supporting Information. […]
(§2) Calculation of kinetic parameters […]
(§3) Protein concentration determination for rat and human plasma […]
(§4) In vitro AChE inhibition assay with rat and human blood
(§5) Inhibition of rat and human erythrocyte AChE by FNT and FNO was determined using the protocol from Kasteel et al. (2021). The final concentrations of FNT and FNO in rat and human blood ranged from 0.05 to 500 µM and from 0.01 to 20 µM, respectively (added from 1000 times concentrated stock solutions in ethanol). Absorbance at 436 nm was measured continuously for 60 min and 10 min to detect […]
(§6) the remaining AChE activity in rat and human blood samples, respectively. Assays were conducted in triplicate, and the data obtained were analyzed in GraphPad Prism (version 5.04, San Diego, CA, USA) to define the concentration resulting in 50% inhibition (IC50). […]

human erythrocyte AChE = target: T2, human erythrocyte AChE (Homo sapiens, UniProt P22303); assay: In vitro AChE inhibition assay with human blood; type: biochemical
T2 construct: tissue CTIBiotech (Lyon, France); host or cells: human whole peripheral blood, K2EDTA
Experimental: as §1, §2, §3, §4, §5, §6

[1] = target: T3, self-prepared rat erythrocyte AChE (Rattus norvegicus, UniProt P37136); assay: In vitro AChE inhibition assay with self-prepared rat erythrocyte AChE in low-protein medium; type: biochemical
T3 construct: rat erythrocyte AChE was prepared from rat whole; tissue BioIVT (West Sussex, UK); host or cells: rat whole blood (Sprague-Dawley, mixed gender, LiHep); erythrocyte AChE prepared in house
Experimental: as §1
(§7) the remaining AChE activity in rat and human blood samples, respectively. Assays were conducted in triplicate, and the data obtained were analyzed in GraphPad Prism (version 5.04, San Diego, CA, USA) to define the concentration resulting in 50% inhibition (IC50).
(§8) In vitro AChE inhibition assay with self-prepared rat erythrocyte AChE and recombinant human […]
(§9) Based on the method described in Zhao et al. (2021), rat erythrocyte AChE was prepared from rat whole blood and the AChE activity was quantified (0.16 U/mL). The inhibition ability of FNT and FNO towards rhAChE and rat erythrocyte AChE was evaluated using a modified protocol (Zhao et al. 2021), and assays were conducted in triplicate. […] After 15 min incubation at 37℃, 150 µL reaction reagent (mixture of ATC at a final concentration of 150 µM and DTNB at a final concentration of 75 µM) was added, and the absorbance at 412 nm was measured continuously for 10 min at 37℃ to test the remaining AChE activity. The AChE activity was expressed as the remaining AChE activity relative to solvent control (100% activity) and positive control (0% activity) based on the equation (Eq S2): […]
(§10) A 412(t10 - t0) Test Compoundwhere is the change of the absorbance at 412 nm between 0 min and 10 min for the test compound; similarly, A 412(t10 - t0) Positive Control is the change of the absorbance for the CPO sample, and A 412(t10 - t0) Solvent Control the change of the absorbance for the 0.2% ethanol sample. […]
(§11) is relevant for the toxicity prediction following acute FNT exposure. The normalized sensitivity coefficients (SCs) were calculated with the equation (Eq S3)

recombinant human AChE = target: T4, recombinant human AChE (Homo sapiens, UniProt P22303); assay: In vitro AChE inhibition assay with recombinant human AChE in low-protein medium; type: biochemical
T4 construct: purchased Sigma-Aldrich (St. Louis, MO, USA)
Experimental: as §1, §7, §8, §9, §10, §11

erythrocyte AChE = details: rat, cited from earlier work
[2] = rats, oral exposure; cited from earlier work
[3] = assumed default for neutral and acidic compounds, no experimental data; cited from earlier work

T4 sequence (P22303 32-614): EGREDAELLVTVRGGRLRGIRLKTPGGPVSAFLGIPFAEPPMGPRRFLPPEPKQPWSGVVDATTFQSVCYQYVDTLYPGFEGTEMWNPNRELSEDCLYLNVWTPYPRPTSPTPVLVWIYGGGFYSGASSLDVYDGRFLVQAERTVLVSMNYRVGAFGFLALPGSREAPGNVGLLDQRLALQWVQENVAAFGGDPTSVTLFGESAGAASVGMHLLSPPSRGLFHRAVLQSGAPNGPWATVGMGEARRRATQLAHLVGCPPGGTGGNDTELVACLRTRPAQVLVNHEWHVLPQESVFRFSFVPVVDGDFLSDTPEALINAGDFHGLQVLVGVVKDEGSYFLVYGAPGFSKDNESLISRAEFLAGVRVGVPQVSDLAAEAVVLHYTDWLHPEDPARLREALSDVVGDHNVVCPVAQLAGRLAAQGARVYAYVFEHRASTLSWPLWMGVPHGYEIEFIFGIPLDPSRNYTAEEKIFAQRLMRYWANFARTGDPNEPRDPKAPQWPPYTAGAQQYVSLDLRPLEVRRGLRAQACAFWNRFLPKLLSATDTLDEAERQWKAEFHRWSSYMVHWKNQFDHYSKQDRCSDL
T3 sequence (P37136 other isoform, or with tags, fused parts or gaps): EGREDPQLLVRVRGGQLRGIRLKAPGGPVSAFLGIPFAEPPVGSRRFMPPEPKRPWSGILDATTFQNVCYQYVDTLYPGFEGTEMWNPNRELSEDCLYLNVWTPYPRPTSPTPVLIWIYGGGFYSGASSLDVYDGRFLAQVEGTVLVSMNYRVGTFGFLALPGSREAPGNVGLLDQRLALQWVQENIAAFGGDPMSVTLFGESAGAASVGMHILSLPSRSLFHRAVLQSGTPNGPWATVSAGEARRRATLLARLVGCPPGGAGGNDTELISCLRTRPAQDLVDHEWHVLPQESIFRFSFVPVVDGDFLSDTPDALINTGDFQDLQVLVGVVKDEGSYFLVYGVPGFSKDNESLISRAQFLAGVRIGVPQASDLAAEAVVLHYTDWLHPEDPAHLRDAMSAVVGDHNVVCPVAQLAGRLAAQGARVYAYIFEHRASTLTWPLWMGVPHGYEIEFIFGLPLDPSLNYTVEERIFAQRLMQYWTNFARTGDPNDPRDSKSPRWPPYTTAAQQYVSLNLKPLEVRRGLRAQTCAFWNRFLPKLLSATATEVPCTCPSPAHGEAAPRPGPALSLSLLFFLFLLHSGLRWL
T2 sequence (P22303 32-617 isoform P22303-2 limits assumed): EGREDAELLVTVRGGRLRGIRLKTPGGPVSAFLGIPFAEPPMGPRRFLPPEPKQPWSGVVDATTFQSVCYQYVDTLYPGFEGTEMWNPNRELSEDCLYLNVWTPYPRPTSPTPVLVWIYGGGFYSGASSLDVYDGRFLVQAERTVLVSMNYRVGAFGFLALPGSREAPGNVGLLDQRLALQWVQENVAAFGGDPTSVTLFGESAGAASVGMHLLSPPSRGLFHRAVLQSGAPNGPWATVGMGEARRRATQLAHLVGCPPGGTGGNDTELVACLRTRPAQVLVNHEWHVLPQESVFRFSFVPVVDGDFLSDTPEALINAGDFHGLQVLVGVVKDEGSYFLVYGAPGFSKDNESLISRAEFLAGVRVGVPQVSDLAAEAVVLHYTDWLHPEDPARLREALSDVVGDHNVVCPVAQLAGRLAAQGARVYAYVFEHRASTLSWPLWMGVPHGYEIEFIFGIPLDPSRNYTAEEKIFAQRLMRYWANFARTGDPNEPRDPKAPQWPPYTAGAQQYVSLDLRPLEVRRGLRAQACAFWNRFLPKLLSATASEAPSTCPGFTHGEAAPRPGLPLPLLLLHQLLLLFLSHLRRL
T1 sequence (P37136 other isoform, or with tags, fused parts or gaps): as the sequence (P37136 other isoform, or with tags, fused parts or gaps) above

COP(=S)(OC)Oc1ccc([N+](=O)[O-])c(C)c1 [FNT, O,O-dimethyl O-4-nitro-m-tolyl phosphorothioate]
IC50 (rat erythrocyte AChE): ~500000 nM | IC50 (human erythrocyte AChE): > 500000 nM | IC50 [1]: 8240 nM | IC50 (recombinant human AChE): 30900 nM | reported NOAEL (erythrocyte AChE; EFSA, 90 day rat study, body weight gain and erythrocyte and brain cholinesterase activity): 1.3 mg/kg BW and 1.30 mg/kg BW | reported NOAEL (erythrocyte AChE; US EPA, erythrocyte AChE inhibition after 2 weeks of dosing in a 92 week rat study): 0.25 mg/kg BW | fraction of the dose absorbed (Fa) [2]: 0.9 | blood plasma ratio (BPr) [3]: 0.55

COP(=O)(OC)Oc1ccc([N+](=O)[O-])c(C)c1 [FNO, fenitrooxon]
IC50 (rat erythrocyte AChE): 950 nM | IC50 (human erythrocyte AChE): 840 nM | IC50 [1]: 180 nM | IC50 fold lower with self-prepared rat erythrocyte AChE than in rat blood ([1]; ratio of IC50 in rat blood to IC50 with self-prepared enzyme): 5.3 fold | IC50 (recombinant human AChE): 250 nM | IC50 fold lower with recombinant human AChE than in human blood (recombinant human AChE; ratio of IC50 in human blood to IC50 with recombinant enzyme): 3.4 fold | blood plasma ratio (BPr) [3]: 0.55
